Data set [1] concerns MDR1-MDCK cell monolayers. The data set is described as follows: Blood-brain-barrier (BBB) penetration potential via MDCK-MDR1 permeability assay. Conditions: for MDCK-MDR1: % Recov A-B / MDCK-MDR1: Papp A-B: A-B direction; for MDCK-MDR1: % Recov B-A / MDCK-MDR1: Papp B-A: B-A direction; for MDCK-MDR1: Efflux: efflux ratio.
The subject of data set [2] is Huntingtin (HTT) transcripts, cryptic exon within intron 49, in GM04724 (CAG 70/20) Huntington's disease patient lymphoblasts. Briefly: Quantitative splicing assay (HTT), qPCR. The data set is classed as cell-based, human. Conditions: 24 h, qPCR, read-out: HTT Splicing: E49-50 EC50. The method in brief: (§1)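 TaqMan qPCR on cell-lysate cDNA quantifies cryptic-exon inclusion from HTT intron 49. Lymphoblasts plated at 50,000 cells/well had received compound for 24 h, 0.15 nM-2.5 uM range, 0.1% DMSO.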

The test system of data set [3] is SMN protein in spinal muscular atrophy (SMA) patient fibroblasts (GM03813, Coriell). The data set is described as follows: SMN protein assay, Mesoscale Discovery (MSD). Conditions: SMA patient fibroblasts GM03813, 48 hours, MSD; read-out: SMN2 protein EC50. Type of data set: cell-based, human. An outline of the steps:
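Absolute SMN levels were quantified by MSD against an SMN protein standard curve (1 μg/ml to 19.5 pg/ml) run on each plate. Samples were lysates of GM03813 patient fibroblasts (7000 cells/well) treated 48 hours with compound doses from 2.5 μM down to 0.6 nM.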

Data set [4] has as its system mHTT protein in GM04724 (CAG 70/20) Huntington's disease patient lymphoblast cells. The data set is described as follows: mHTT protein assay, 2B7-MW1 assay via Mesoscale Discovery (MSD). Conditions: GM04724 Huntington's disease patient lymphoblasts. Type of data set: cell-based, human. The method in brief:
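Signal from the 2B7-MW1 antibody pair on MSD, rising with polyQ length and smaller HTT fragments, measured mHTT after 48 h compound exposure (0.6 nM–10 μM) in GM04724 cells. A parallel replicate plate gave CellTiter Glo viability.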

The subject of data set [5] is MDR1-MDCK cell monolayers. Conditions: dog, MDCK-MDR1, 120 min, 5 μM, pH 7.4.
The test system of data set [6] is MDR1 (P-gp). The data set is described as follows: in vitro. Conditions: dog, MDCK-MDR1, pH 7.4.
Data set [7] has as its system MDR1. The data set is described as follows: in vitro. Conditions: dog, MDCK-MDR1, pH 7.4.
Data set [8] can be described thus: Quantitative splicing assay (HTT), qPCR. Conditions: Homo sapiens; GM04724 lymphoblasts, 24 h, qPCR; read-out: HTT Splicing: E49-50 EC50. Type of data set: cell-based, human. An outline of the steps: as §1
For data set [9], the system named is MDR1 (P-gp). The data set is described as follows: Blood-brain-barrier (BBB) penetration potential via MDCK-MDR1 permeability assay. Conditions: dog.
The test system of data set [10] is MDR1. The data set is described as above. Conditions: dog, MDCK-MDR1, pH 7.4, MDCK-MDR1: Efflux, efflux ratio.
Data set [11] deals with SMN FL and SMN Δ7 in spinal muscular atrophy (SMA) patient fibroblasts (GM03813, Coriell). Briefly: Quantitative splicing assay (SMN), qPCR. Conditions: Homo sapiens, Fibroblast, 24 h, SMA patient fibroblasts GM03813, 24 h, qPCR; read-out: SMN2 Splicing FL EC50. The data set is classed as cell-based, human. As for the experimental part:
Spinal muscular atrophy (SMA) patient fibroblasts (GM03813, Coriell) are plated in 96-well plates at 50,000 cells/well. […] Treated cells are lysed and cDNA synthesized using the Fast Advanced Cells-to-Ct kit (Thermofisher A35378) according to the manufacturer's instructions. 2 μL of each cDNA are used in qPCR reactions. […] Reactions are run in a Quant Studio 6 qPCR instrument with default settings.

The structures appear in SMILES notation. Where two headings read alike, the source gives them in different places.

With `CN(c1ccc(-c2ccc(-c3cnn(C)c3)cc2O)nn1)C1CC2COCC(N2)C1F` (single isomer, unassigned) [Compound 80B], in data set [1], the “MDCK-MDR1: % Recov A-B” value stood at 76%; the “MDCK-MDR1: Papp A-B” value was 6.01 10^−6, cm/s; the “MDCK-MDR1: % Recov B-A” value is listed as 87%; the “MDCK-MDR1: Papp B-A” value is recorded as 40.8 10^−6, cm/s. The “MDCK-MDR1: Efflux” value in data set [1] is 7. Besides, the EC50 in [2] lay within 51 to 100 nM. Moreover, the EC50 in data set [3] was in the range of 101 to 500 nM. In data set [4], this compound gave an EC50 of 16 to 50 nM.
In the case of `CN(c1ccc(-c2cc3ccn(C)c(=O)c3cc2O)nn1)[C@H]1C[C@@H]2CC[C@H]([C@H]1F)N2C` (single isomer, unassigned) [Compound 97B], in data set [5], the “MDCK-MDR1: % Recov A-B” value worked out at 85% and the “MDCK-MDR1: % Recov B-A” value came to 83%. Moreover, in data set [6], the Papp A→B at 120 min, 5 μM came to 1.96 ×10⁻⁶ cm/s and the Papp B→A at 120 min, 5 μM was 53.1 ×10⁻⁶ cm/s. Further, the efflux ratio at 120 min, 5 μM in data set [7] amounted to 27. In addition, in data set [8], the EC50 lay within 101 to 500 nM. Besides, the EC50 in data set [3] was in the range of 101 to 500 nM. This compound also returned an EC50 in [4] of 101 to 500 nM.
The compound `CN(c1ccc(-c2ccc(-c3cn[nH]c3)cc2O)nn1)C1CC2COCC(N2)C1F` (centres unmarked) [Compound 8A] returned a Papp A→B at 120 min, 5 μM in [9] (MDCK-MDR1, pH 7.4, MDCK-MDR1: Papp A-B, A-B direction) of 1.67 ×10⁻⁶ cm/s. Further, the Papp B→A at 120 min, 5 μM in [9] (MDCK-MDR1, pH 7.4, MDCK-MDR1: Papp B-A, B-A direction) came to 59.3 ×10⁻⁶ cm/s. Also, the “MDCK-MDR1: % Recov A-B” value in data set [1] was 87%. In addition, the “MDCK-MDR1: % Recov B-A” value in data set [1] is reported as 93%. In addition, the efflux ratio at 120 min, 5 μM in [10] came out at 36. Besides, the EC50 in data set [2] fell in the range of 16 to 50 nM; in [3], 101 to 500 nM; in data set [4] it was 0.01 to 15 nM.
On to `CN(c1ccc(-c2ccc(-c3cn[nH]c3)cc2O)nn1)C1CC2COCC(N2)C1F` (centres unmarked) [Compound 8B], for which, in data set [1], the “MDCK-MDR1: % Recov A-B” value came to 84%; the “MDCK-MDR1: Papp A-B” value is listed as 2.04 10^−6, cm/s; the “MDCK-MDR1: % Recov B-A” value is reported as 98%; the “MDCK-MDR1: Papp B-A” value is listed as 39.1 10^−6, cm/s. Further, the “MDCK-MDR1: Efflux” value in [1] turned out to be 19. Further, the EC50 in data set [2] is 0.01 to 15 nM. Besides, in data set [3], the EC50 is 16 to 50 nM. Also, the EC50 in [11] is 16 to 50 nM. In addition, the EC50 in [4] lay in the range of 0.01 to 15 nM.
Regarding `Cn1cnc2cc(-c3ccc(N(C4CC4)[C@@H]4C[C@H]5CC[C@H](N5)[C@@H]4F)nn3)c(O)cc2c1=O` [Compound 56A, 7-(6-(cyclopropyl((1S,2S,3R,5R)-2-fluoro-8-azabicyclo[3.2.1]octan-3-yl)amino)pyridazin-3-yl)-6-hydroxy-3-methylquinazolin-4(3H)-one], in [5], the “MDCK-MDR1: % Recov A-B” value amounted to 83% and the “MDCK-MDR1: % Recov B-A” value is reported as 83%. In data set [6], this compound gave a Papp A→B at 120 min, 5 μM of 0.92 ×10⁻⁶ cm/s and a Papp B→A at 120 min, 5 μM of 51.4 ×10⁻⁶ cm/s. Also, in data set [7], the efflux ratio at 120 min, 5 μM came out at 56. For the same compound, in data set [8], the EC50 lay in the range of 10 to 501 nM. The EC50 in data set [3] lay in the range of 101 to 500 nM. The compound also had an EC50 in data set [4] of 101 to 500 nM.

What is called EC50 is the concentration at which the effect is half-maximal. In general, Papp A→B refers to how fast a substance crosses the layer from the apical side. What is called Papp B→A is the apparent permeability from the basolateral to the apical side of a cell layer. In general, efflux ratio refers to the permeability from basolateral to apical divided by that in the opposite direction, in the common usage.

For the origin of these results see patent US12509460B2 (Skyhawk Therapeutics, Inc., priority 2019, dated 2025).
